Test results reported in patent US20120259092A1, “NPY ANTAGONISTS” (priority 2011, published 2012).
Entries after “also recorded” stand apart in the source; their conditions may differ. Bridge positions count the residues as written; N and C are the ends. Square brackets hold non-standard residues; d marks the D form. Peptide text beside a SMILES is read from it. I, II: the chains in the order shown. * marks the point of attachment. DOTA = O=C(O)CN1CCN(CC(=O)O)CCN(CC(=O)*)CCN(CC(=O)O)CC1; Nle = CCCC[C@H](N)C(=O)O

Key:
NPY Y1 [1] = biological target: T1, NPY Y1 (Homo sapiens, UniProt P25929); test: Adenylate cyclase activity (forskolin-stimulated cAMP accumulation) flashplate assay in SK-N-MC cells; assay type: cell-based; conditions: for Activity Y1-cAMP (SK-N-MC): agonistic or antagonistic property: SK-N-MC cells
T1 construct: SK-N-MC cells endogenously expressing Y1; host or cells: SK-N-MC
T1 sequence (P25929 1-384): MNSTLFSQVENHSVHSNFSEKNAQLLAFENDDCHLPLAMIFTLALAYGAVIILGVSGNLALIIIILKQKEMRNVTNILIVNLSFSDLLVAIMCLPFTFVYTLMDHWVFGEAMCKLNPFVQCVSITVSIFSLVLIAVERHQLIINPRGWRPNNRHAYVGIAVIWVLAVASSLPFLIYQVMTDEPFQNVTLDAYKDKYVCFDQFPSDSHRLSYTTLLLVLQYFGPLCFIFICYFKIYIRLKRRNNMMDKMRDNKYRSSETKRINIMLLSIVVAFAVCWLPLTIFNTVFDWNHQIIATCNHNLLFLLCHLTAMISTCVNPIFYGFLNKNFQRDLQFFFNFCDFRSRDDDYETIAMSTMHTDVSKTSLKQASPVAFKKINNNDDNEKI
Procedure: Cells were incubated for 30 min with 10 μM forskolin in the presence of [Leu^31-Pro^34]-PYY (LP-PYY) at concentrations ranging between 0.01 nM and 20 μM alone ([…]) or with 10 μM forskolin in the presence of LP-PYY at concentrations ranging between 0.01 nM and 20 μM supplemented with a fixed concentration of 20 μM of the analog Peptide No. 11 (▪). […] Peptide No. 11 given alone has no effect on the accumulation of forskolin-stimulated cAMP (▴).
Adenylate cyclase activity with respect to NPY Y1 was determined in SK-N-MC cells using the adenylate cyclase activation flashplate assay (SMP004) from PerkinElmer. SK-N-MC cells were seeded in 96-well culture plates at 25,000 cells/well and cultured for 48 h at 37° C. and 5% CO2. Culture medium was then removed from the wells and fresh medium (100 μL) containing 0.5 mM 3-isobutyl-1-methylxanthine (IBMX) was added to each well. Cells were incubated for 30 min at 37° C. Medium was then removed and replaced with fresh medium containing 0.5 mM IBMX, with or without 10 μM forskolin and various concentrations of the peptides to be analyzed. Cells were incubated for 30 min at 37° C. After removal of the medium, cells were lysed and cAMP accumulation was determined using the SMP004 kit from PerkinElmer.
Because the addition of a DOTA moiety can change the functional characteristics of a compound, as recently shown in the somatostatin receptor field for sst3, compounds having a high or moderate Y1 affinity were analyzed in an adenylate cyclase activity assay for their agonistic or antagonistic properties. […] Given alone at a high concentration of 20 μM, they were unable to inhibit forskolin-stimulated cAMP accumulation but they efficiently antagonized the agonistic effect of 100 nM [Leu^31, Pro^34]-hPYY. […] The conclusion is that the DOTA-conjugated compound, i.e. Peptide No. 11, with its high binding affinity and its antagonist property represents an excellent candidate for in vivo tumor targeting.

NPY Y1 [2] = biological target: T1, NPY Y1; test: Receptor autoradiography binding, 125I-hPYY displacement on SK-N-MC cell membrane pellet sections; conditions: for Displacement of 125I-hPYY (FIG. 2): SK-N-MC cell line, competition experiments; for IC50: SK-N-MC membrane pellet sections, 125I-hPYY, read-out: Binding affinity (IC50 nM) Y1 (SK-N-MC)
Procedure: Testing of Peptides 1-11 was carried out using specific cell lines. The neuroepithelioma cell line SK-N-MC endogenously expressing the NPY Y1 receptor was obtained from ATCC (HTB-10; LGC Standards, Teddington, Middlesex, UK). Cells were cultured at 37° C. and 5% CO2 in MEM medium with GlutaMax I and supplemented with 10% FBS, 100 U/ml penicillin and 100 μg/ml streptomycin, 1 mM MEM sodium pyruvate, and MEM non-essential amino acids (1×). The neuroblastoma cell line SH-SY5Y endogenously expressing the NPY Y2 receptor, was provided by Dr. Paolo Paganetti (Novartis, Basel, Switzerland). Cells were cultured at 37° C. and 5% CO2 in MEM/Ham's F12 with GlutaMax I and supplemented with 10% FBS, 100 U/ml penicillin and 100 μg/ml streptomycin, 1 mM MEM sodium pyruvate, and MEM non-essential amino acids (1×).
Binding affinities of the compounds were assessed using sections of cell membrane pellets of SK-N-MC for NPY Y1 or SH-SY5Y for NPY Y2. Briefly, membrane pellets were prepared and stored at −80° C., and receptor autoradiography was performed on 20-μm thick cryostat sections of the membrane pellets, mounted on microscope slides and stored at −20° C. The slides were preincubated in Krebs-Ringer solution (NaCl 119 mM, KCl 3.2 mM, KH2PO4 1.19 mM, MgSO4 1.19 mM, NaHCO3 25 mM, CaCl2 2.53 mM, D-glucose 10 mM; pH 7.4) for 60 min at room temperature. Then, they were incubated for 120 min in Krebs-Ringer solution containing 0.1% BSA, 0.05% bacitracin, and 10 000 cpm/100 μl of the ^125I-labeled human PYY alone or with increasing concentrations ranging from 0.1 nM up to 1000 nM of non-labeled hPYY, as control, or with the compounds to be tested. After the incubation, the slides were washed two times for 5 min and then rinsed four times in ice-cold preincubation solution. After drying, the slides were exposed to Kodak films Biomax MR® for 7 days. IC50 values were calculated after quantification of the data using a computer-assisted image processing system. Tissue standards containing known amount of isotope, cross-calibrated to tissue-equivalent ligand concentrations were used for quantification.
The DOTA-free and DOTA-coupled analogs listed in Table 1 were analyzed in receptor autoradiography experiments for NPY Y1 and Y2 receptor binding affinities on SK-N-MC cells endogenously expressing Y1 and SH-SY5Y cells endogenously expressing Y2, respectively. Pharmacological displacement experiment using SK-N-MC cell membrane pellet sections for Peptides Nos. 9, 10 and 11 are shown in FIG. 2. The addition of two DOTA moieties to the homodimeric analogs decreases the Y1 binding affinity up to 2-30 fold.

Molecule | Displacement of 125I-hPYY (FIG. 2) (NPY Y1 [2]) | IC50 (NPY Y1 [2]) | Activity Y1-cAMP (SK-N-MC): agonistic or antagonistic property (NPY Y1 [1]; 10 μM forskolin) | Effect on forskolin-stimulated cAMP accumulation, given alone (NPY Y1 [1]; peptide alone, 20 μM, 10 μM forskolin) | Inhibition of forskolin-stimulated cAMP accumulation (agonist control) (NPY Y1 [1]; applied at 20 μM and 100 nM) | Effect on dose response curve of [Leu31,Pro34]-PYY (LP-PYY) (NPY Y1 [1]; peptide fixed at 20 μM, with increasing LP-PYY, 10 μM forskolin, 30 min)
[Leu^31, Pro^34]-hPYY [reference compound] | – | – | – | – | efficiently inhibited forskolin-stimulated cAMP accumulation | –
CCCC[C@H](NC(=O)[C@H](CCCNC(=N)N)NC(=O)[C@H](Cc1c[nH]c2ccccc12)NC(=O)[C@H](CSSC[C@H](NC(=O)[C@@H]1CCCN1C(=O)[C@H](CC(N)=O)NC(=O)[C@@H](N)[C@@H](C)CC)C(=O)N[C@@H](Cc1c[nH]c2ccccc12)C(=O)N[C@@H](CCCNC(=N)N)C(=O)N[C@@H](CCCC)C(=O)N[C@@H](CCCNC(=N)N)C(=O)N[C@@H](Cc1ccc(O)cc1)C(N)=O)NC(=O)[C@@H]1CCCN1C(=O)[C@H](CCCCNC(=O)CN1CCN(CC(=O)O)CCN(CC(=O)O)CCN(CC(=O)O)CC1)NC(=O)[C@@H](N)[C@@H](C)CC)C(=O)N[C@@H](CCCNC(=N)N)C(=O)N[C@@H](Cc1ccc(O)cc1)C(N)=O [Peptide No. 11] (I: H-IK(DOTA)PCWR[Nle]RY-NH2 / II: H-INPCWR[Nle]RY-NH2; disulfide I:4-II:4) | high affinity displacements | 13 nM | Antagonist | no effect | – | shifts the dose response curve of LP-PYY to the right; also recorded: shift the dose response curve of [Leu^31, Pro^34]-hPYY to the right

Now from value to molecule, other results behind:

Displacement of 125I-hPYY (FIG. 2) (NPY Y1 [2]) | IC50 (NPY Y1 [2]) | Activity Y1-cAMP (SK-N-MC): agonistic or antagonistic property (NPY Y1 [1]; 10 μM forskolin) | Effect on forskolin-stimulated cAMP accumulation, given alone (NPY Y1 [1]; peptide alone, 20 μM, 10 μM forskolin) | Molecule | Inhibition of forskolin-stimulated cAMP accumulation (agonist control) (NPY Y1 [1]; applied at 20 μM and 100 nM) | Effect on dose response curve of [Leu31,Pro34]-PYY (LP-PYY) (NPY Y1 [1]; peptide fixed at 20 μM, with increasing LP-PYY, 10 μM forskolin, 30 min)
– | 294 ± 33 nM | Antagonist | – | CCCC[C@H](NC(=O)[C@H](CCCNC(=N)N)NC(=O)[C@H](Cc1c[nH]c2ccccc12)NC(=O)[C@H](CSSC[C@H](NC(=O)[C@@H]1CCCN1C(=O)[C@H](CC(N)=O)NC(=O)[C@@H](NC(=O)CN1CCN(CC(=O)O)CCN(CC(=O)O)CCN(CC(=O)O)CC1)[C@@H](C)CC)C(=O)N[C@@H](Cc1c[nH]c2ccccc12)C(=O)N[C@@H](CCCNC(=N)N)C(=O)N[C@@H](CCCC)C(=O)N[C@@H](CCCNC(=N)N)C(=O)N[C@@H](Cc1ccc(O)cc1)C(N)=O)NC(=O)[C@@H]1CCCN1C(=O)[C@H](CC(N)=O)NC(=O)[C@@H](NC(=O)CN1CCN(CC(=O)O)CCN(CC(=O)O)CCN(CC(=O)O)CC1)[C@@H](C)CC)C(=O)N[C@@H](CCCNC(=N)N)C(=O)N[C@@H](Cc1ccc(O)cc1)C(N)=O [compound 4] (I: {DOTA}-INPCWR[Nle]RY-NH2 / II: {DOTA}-INPCWR[Nle]RY-NH2; disulfide I:4-II:4) | – | –
high affinity displacements | – | – | – | hPYY: non-labeled human peptide YY, used as control in binding competition [reference compound] | – | –
– | 143 ± 37 nM | Antagonist | – | CC[C@H](C)[C@H](NC(=O)CN1CCN(CC(=O)O)CCN(CC(=O)O)CCN(CC(=O)O)CC1)C(=O)N[C@@H](CC(N)=O)C(=O)N1CCC[C@H]1C(=O)N[C@@H](CSSC[C@H](NC(=O)[C@@H]1CCCN1C(=O)[C@H](CC(N)=O)NC(=O)[C@@H](NC(=O)CN1CCN(CC(=O)O)CCN(CC(=O)O)CCN(CC(=O)O)CC1)[C@@H](C)CC)C(=O)N[C@@H](Cc1ccc(O)cc1)C(=O)N[C@@H](CCCNC(=N)N)C(=O)N[C@@H](CC(C)C)C(=O)N[C@@H](CCCNC(=N)N)C(=O)N[C@@H](Cc1ccc(O)cc1)C(N)=O)C(=O)N[C@@H](Cc1ccc(O)cc1)C(=O)N[C@@H](CCCNC(=N)N)C(=O)N[C@@H](CC(C)C)C(=O)N[C@@H](CCCNC(=N)N)C(=O)N[C@@H](Cc1ccc(O)cc1)C(N)=O [compound 2] (I: {DOTA}-INPCYRLRY-NH2 / II: {DOTA}-INPCYRLRY-NH2; disulfide I:4-II:4) | – | –
